The results in this text go back to patent US5770563A, “Heparin- and sulfatide binding peptides from the type I repeats of human thrombospondin and conjugates thereof” (The United States of America as represented by the …, priority 1995, dated 1998).

Experiment [1] deals with thrombospondin binding to heparin. The experiment can be described thus: Inhibition of 125I-thrombospondin binding to immobilized heparin-BSA. Details: species or system human. The settings on record: for inhibition of thrombospondin binding to heparin, in words: free peptide. As for the experimental part: (§1) The peptides were tested as inhibitors of laminin, thrombospondin or apolipoprotein E binding to a heparin-bovine serum albumen conjugate or to a sulfatide in a solid phase assay essentially following the procedure described in Zabrenetzky et al., Cancer Res., Vol. 50, pages 5937-5942 (1990). Sulfatide (0.2 μg/well for thrombospondin binding, 0.6 μg/well for laminin binding) was immobilized in a mixture of 50 ng of phosphatidyl choline, and 30 ng of cholesterol on polyvinyl chloride microtiter plates. Heparin-BSA (0.2 μg/well) was absorbed onto polyvinyl chloride microtiter plate wells by incubation of 50 μl of Dulbecco's PBS for 2 h at 37°. The wells were emptied and filled with 50 mM tris, pH 7.8 containing 150 mM NaCl, 1 mM CaCl2, 0.025% NaN3, and 1% BSA. After 30 minutes, the wells were emptied and 30 μl of various concentrations of potential inhibitory peptides diluted in the same buffer or buffer alone and 30 μl of ^125 I-labeled laminin, thrombospondin or apolipoprotein E (0.2 μg/ml) were added to each well. After 3 hours at 4°, the wells were washed 6 times with 0.15M NaCl, cut from the plate and the bound radioactivity counted. FIGS. 1A-B and 2A-B show the level of thrombospondin binding to sulfatide and heparin-BSA, respectively, in the presence of increasing concetrations of the peptides listed. FIGS. 3 and 4A-B show the level of laminin binding to sulfatide and heparin-BSA, respectively, in the presence of increasing concentrations of the listed peptides.
Microtiter plate wells were coated with heparin-BSA. Heparin-BSA (0.2 μg/well) was adsorbed by incubation in 50 μl of Dulbecco's PBS for 2 h at 370. The wells were emptied, filled with tris-BSA, and incubated for 30 to 60 minutes. The buffer was removed, and labelled thrombospondin was added and incubated in the wells for 3 h at 40. The wells were emptied and washed 4 times with saline. The bottoms of the wells were cut from the plate and counted to quantify thrombospondin binding. Inhibition of thrombospondin binding was determined using peptides diluted in 30 μl of 50 mM tris buffer, pH 7.8, containing 110 mM NaCl, 1 mM CaCl2, 0.025% NaN3, and 1% BSA or buffer alone and 30 μl of ^125 I-labeled TSP (0.2 μg/ml).

In experiment [2] the target is thrombospondin binding to sulfatide. The experiment can be described thus: Inhibition of 125I-thrombospondin binding to sulfatide. On the set-up: species or system human. The settings on record: for pIC50: Table 1, free peptide. As for the experimental part: as §1
In experiment [3] the target is laminin binding to heparin. The experiment can be described thus: Inhibition of 125I-laminin binding to heparin-BSA. On the set-up: species or system mouse. The settings on record: Table 2, free peptide. As for the experimental part:
as §1

The target in experiment [4] is laminin binding to sulfatide. The experiment can be described thus: Inhibition of 125I-laminin binding to sulfatide. On the set-up: species or system mouse. To be noted: Table 2, free peptide. The method, then:
as §1

For experiment [5], the target named is basic fibroblast growth factor (FGF-2) binding to heparin. Put plainly: Inhibition of 125I-bFGF binding to heparin-BSA conjugate. The settings on record: retro-inverso peptides; read-out: IC50 for Inhibition of Binding. The method, then:
Binding of ^125 I-bFGF to heparin was determined using an immobilized heparin-BSA conjugate as previously described (Guo, et al. (1992) Proc. Nat'l Acad. Sci. 89:3040-3044). ^125 I-bFGF, prepared as described by Neufeld, et al, (1985), J. Biol. Chem. 260:13860-13868, was added described above, and incubated for 2 hours at 25° C. Bound radioactivity was determined after washing and cutting the wells from the plate. FIGS. 40A, B and C show the inhibition of ^125 I-bFGF binding to heparin by a number of TSP peptide analogs.

[6] abbreviates: Table 1, free peptide, read-out: IC50 Heparin Binding, inhibition of 125I-thrombospondin binding.

pIC50: −log10 of the molar value. Like-named read-outs stand apart in the source and are kept apart here. Square brackets hold non-standard residues; d marks the D form. Peptide text beside a SMILES is read from it. Ava = NCCCCC(=O)O; Mpa = O=C(O)CCS Where only a bound is given, the exact number is not on record here.

The pIC50 is −log10 of the IC50, conventionally taken in molar units. For `CC(C)[C@H](N)C(=O)N[C@H](C(=O)N[C@@H](CS)C(=O)NCC(=O)O)[C@@H](C)O` [Peptide 203, VTCG] (H-VTCG-OH), the pIC50 in experiment [1] (setting [6]), in experiment [2], in experiment [3] and in experiment [4] was less than 3.70 each time. In experiment [1], the “inhibition of thrombospondin binding to heparin, in words” value (“inhibition of thrombospondin binding” for short) was “inactive”.
`CC(C)[C@H](N)C(=O)N[C@H](C(=O)N[C@@H](CS)C(=O)NCC(=O)NCC(=O)NCC(=O)N[C@H](C(=O)N[C@@H](CCC(N)=O)C(=O)N[C@@H](CCCCN)C(=O)N[C@@H](CCCNC(=N)N)C(=O)O)C(C)C)[C@@H](C)O` [Peptide 204, VTCGGGVQKR] (H-VTCGGGVQKR-OH): the pIC50 in experiment [1] (setting [6]), in experiment [2], in experiment [3] and in experiment [4] was less than 3.70 throughout.
As to `CC[C@H](C)[C@H](NC(=O)[C@@H](NC(=O)CNC(=O)[C@H](CC(=O)O)NC(=O)CNC(=O)[C@H](CS)NC(=O)[C@@H](NC(=O)[C@@H](N)C(C)C)[C@@H](C)O)C(C)C)C(=O)N[C@H](C(=O)N[C@@H](CCCNC(=N)N)C(=O)O)[C@@H](C)O` [Peptide 205, VTCGDGVITR] (H-VTCGDGVITR-OH), the pIC50 in experiment [1] (setting [6]), in experiment [2], in experiment [3] and in experiment [4] was less than 3.70 throughout.
Turning to `CC[C@H](C)[C@H](NC(=O)CNC(=O)[C@H](CC(N)=O)NC(=O)CNC(=O)[C@H](CS)NC(=O)[C@H](CO)NC(=O)[C@@H](N)[C@@H](C)O)C(=O)N[C@@H](CCC(N)=O)C(=O)N[C@@H](CCC(N)=O)C(=O)N[C@@H](CCCNC(=N)N)C(=O)O` [Peptide 206, TSCGNGIQQR] (H-TSCGNGIQQR-OH), the pIC50 in experiment [1] (setting [6]), in experiment [2], in experiment [3] and in experiment [4] was less than 3.70 in each case.
On to `CC(C)[C@H](NC(=O)[C@H](CO)NC(=O)[C@@H](N)CS)C(=O)N[C@H](C(=O)O)[C@@H](C)O` [Peptide 234, CSVT] (H-CSVT-OH), for which the pIC50 in experiment [1] (setting [6]), in experiment [2], in experiment [3] and in experiment [4] was less than 3.70 each time. For the same molecule, in experiment [1], the “inhibition of thrombospondin binding” value was “inactive”.
Regarding `CC(C)[C@H](NC(=O)[C@H](CO)NC(=O)[C@@H](N)CO)C(=O)N[C@H](C(=O)O)[C@@H](C)O` [Peptide 235, SSVT] (H-SSVT-OH), the pIC50 in experiment [1] (setting [6]), in experiment [2], in experiment [3] and in experiment [4] was less than 3.70 throughout.
As for `CC(C)[C@H](NC(=O)[C@H](CO)NC(=O)[C@H](C)N)C(=O)N[C@H](C(=O)O)[C@@H](C)O` [Peptide 236, ASVT] (H-ASVT-OH), the pIC50 in experiment [1] (setting [6]), in experiment [2], in experiment [3] and in experiment [4] was less than 3.70 in each case.
Regarding `CC(C)[C@H](NC(=O)[C@H](CO)NC(=O)[C@@H](N)CO)C(=O)N[C@H](C(=O)N[C@@H](CS)C(=O)NCC(=O)O)[C@@H](C)O` [Peptide 237, SSVTCG] (H-SSVTCG-OH), the pIC50 in experiment [1] (setting [6]) was 4.24; in experiment [2], 4.52; in experiment [3], 4.00; in experiment [4], 4.07. Besides, the “inhibition of thrombospondin binding” value in experiment [1] was “very weak inhibitor”. In addition, the “fold less active than CSVTCG” value in experiment [2] (thrombospondin binding to sulfatide) came out at 2 fold.
With `CC(C)[C@H](NC(=O)[C@H](CO)NC(=O)[C@H](CS)NC(=O)[C@H](CO)NC(=O)[C@@H](N)CO)C(=O)N[C@H](C(=O)O)[C@@H](C)O` [Peptide 238, SSCSVT] (H-SSCSVT-OH), the pIC50 in experiment [1] (setting [6]) was 4.07; in experiment [2], less than 4.00; in experiment [3], less than 3.70; in experiment [4], less than 3.70. Also, the “inhibition of thrombospondin binding” value in experiment [1] is on record as “weak inhibition of thrombospondin binding”.
Turning to `CC(C)C[C@H](NC(=O)[C@H](CCCNC(=N)N)NC(=O)[C@H](CO)NC(=O)[C@H](CCCNC(=N)N)NC(=O)[C@H](CCCCN)NC(=O)[C@H](CCC(N)=O)NC(=O)[C@@H](NC(=O)CNC(=O)CNC(=O)CNC(=O)[C@H](CS)NC(=O)[C@@H](NC(=O)[C@@H](N)C(C)C)[C@@H](C)O)C(C)C)C(=O)O` [Peptide 245, VTCGGGVQKRSRL] (H-VTCGGGVQKRSRL-OH), the pIC50 was less than 3.70 in experiment [1] (setting [6]), less than 3.70 in experiment [2], approximately 3.70 in experiment [3] and less than 3.70 in experiment [4]. For the same molecule, in experiment [1], the “inhibition of thrombospondin binding” value is “inactive”.
For `CC(=O)N[C@H](C)C(=O)N[C@H](C)C(=O)N[C@H](Cc1c[nH]c2ccccc12)C(=O)N[C@H](Cc1c[nH]cn1)C(=O)N[C@H](CO)C(=O)N[C@H](Cc1c[nH]c2ccccc12)C(=O)NCC(=O)N[C@H](C)C(=O)N[C@H](CCC(N)=O)C(=O)N[C@H](CCCCN)C(=O)N[C@H](C)C(=O)N[C@H](CCCNC(=N)N)C(=O)N[C@H](CCCCN)C(N)=O` [Peptide 529, ri-amKRAKQAGWSHWAAac] (Ac-[dA][dA][dW][dH][dS][dW]G[dA][dQ][dK][dA][dR][dK]-NH2), in experiment [5], the pIC50 is 6.43.
The same measure, in the same setting: then `CC(=O)N[C@H](C)C(=O)N[C@H](C)C(=O)N[C@H](Cc1c[nH]c2ccccc12)C(=O)N[C@H](Cc1c[nH]cn1)C(=O)N[C@H](CO)C(=O)N[C@H](Cc1c[nH]c2ccccc12)C(=O)NCC(=O)N[C@H](C)C(=O)N[C@H](CCC(N)=O)C(=O)N[C@H](CCCCN)C(=O)N[C@H](Cc1ccccc1)C(=O)N[C@H](CCCNC(=N)N)C(=O)N[C@H](CCCCN)C(N)=O` [Peptide 530, ri-amKRFKQAGWSHWAAac] (Ac-[dA][dA][dW][dH][dS][dW]G[dA][dQ][dK][dF][dR][dK]-NH2), with 6.19; and `CC(=O)N[C@H](C)C(=O)N[C@H](C)C(=O)N[C@H](Cc1c[nH]c2ccccc12)C(=O)N[C@H](Cc1c[nH]cn1)C(=O)N[C@H](CO)C(=O)N[C@H](Cc1c[nH]c2ccccc12)C(=O)NCC(=O)N[C@H](C)C(=O)N[C@H](CCC(N)=O)C(=O)N[C@H](CCCNC(=N)N)C(=O)N[C@H](C)C(=O)N[C@H](CCCNC(=N)N)C(=O)N[C@H](CCCCN)C(N)=O` [Peptide 536, ri-amKRARQAGWSHWAAac] (Ac-[dA][dA][dW][dH][dS][dW]G[dA][dQ][dR][dA][dR][dK]-NH2), with 6.02; and `CC(=O)N[C@H](C)C(=O)N[C@H](C)C(=O)N[C@H](Cc1c[nH]c2ccccc12)C(=O)N[C@H](Cc1c[nH]cn1)C(=O)N[C@H](CO)C(=O)N[C@H](Cc1c[nH]c2ccccc12)C(=O)NCC(=O)N[C@H](C)C(=O)N[C@H](CCC(N)=O)C(=O)N[C@H](CCCCN)C(=O)N[C@H](C)C(=O)N[C@H](CCCCN)C(=O)N[C@H](CCCCN)C(N)=O` [Peptide 537, ri-amKKAKQAGWSHWAAac] (Ac-[dA][dA][dW][dH][dS][dW]G[dA][dQ][dK][dA][dK][dK]-NH2), with 7.00.
`C[C@@H](NC(=O)CCS)C(=O)N[C@H](C)C(=O)N[C@H](Cc1c[nH]c2ccccc12)C(=O)N[C@H](Cc1c[nH]cn1)C(=O)N[C@H](CO)C(=O)N[C@H](Cc1c[nH]c2ccccc12)C(=O)NCCCCC(=O)N[C@H](C)C(=O)N[C@H](CCC(N)=O)C(=O)N[C@H](CCCCN)C(=O)N[C@H](C)C(=O)N[C@H](CCCNC(=N)N)C(=O)N[C@H](CCCCN)C(N)=O` [ri-amKRAKQUWSHWAAtp] ([Mpa][dA][dA][dW][dH][dS][dW][Ava][dA][dQ][dK][dA][dR][dK]-NH2): the pIC50 in experiment [1] (retro-inverso peptides, free, read-out: IC50 Inhibitory Activity, Free Peptide) was 7.34.
